Experiments:
Assay type in all cases: in vivo
[1] = system: corn (Zea mays); experiment: Test A postemergence; details: Zea mays, post-emergence, 240 h
How it was run: (§1)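 Visual injury, scored on a 0–100 scale relative to untreated controls, was recorded about 10 d after application. Treatments were a preemergence soil spray over planted seeds or a postemergence spray on plants at the one- to two-leaf stage, 2 to 10 cm tall, all in loam soil–sand blend in the greenhouse.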

[2] = system: giant foxtail (Setaria faberii); experiment: Test A postemergence; details: Setaria faberi, post-emergence, 240 h
How it was run: as §1

[3] = system: Kochia (Kochia scoparia); experiment: Test A postemergence; details: Bassia scoparia, post-emergence, 240 h
How it was run: as §1

[4] = system: ragweed (common ragweed, Ambrosia elatior); experiment: Test A postemergence; details: Ambrosia artemisiifolia, post-emergence, 240 h, 125 g ai/ha, postemergence, visual injury vs untreated controls after approx. 10 d; 0 = no effect, 100 = complete control; read-out: Ragweed plant response rating (0 to 100 scale)
How it was run: as §1

[5] = system: ryegrass, Italian (Italian ryegrass, Lolium multiflorum); experiment: Test A postemergence; details: Lolium multiflorum, post-emergence, 240 h, 125 g ai/ha, postemergence, visual injury vs untreated controls after approx. 10 d; 0 = no effect, 100 = complete control; read-out: Ryegrass, Italian plant response rating (0 to 100 scale)
How it was run: as §1

[6] = system: blackgrass (Alopecurus myosuroides); experiment: Test A postemergence; details: Alopecurus myosuroides, post-emergence, 240 h
How it was run: as §1

[7] = system: Galium (catchweed bedstraw, Galium aparine); experiment: Test A postemergence; details: Galium, post-emergence, 240 h
How it was run: as §1

[8] = system: wheat (Triticum aestivum); experiment: Test A postemergence; details: Triticum aestivum, post-emergence, 240 h, 125 g ai/ha, postemergence, visual injury vs untreated controls after approx. 10 d; 0 = no effect, 100 = complete control; read-out: Wheat plant response rating (0 to 100 scale)
How it was run: as §1

[9] = system: pigweed (Amaranthus retroflexus); experiment: Test A postemergence; details: Amaranthus retroflexus, post-emergence, 240 h, 125 g ai/ha, postemergence, visual injury vs untreated controls after approx. 10 d; 0 = no effect, 100 = complete control; read-out: Pigweed plant response rating (0 to 100 scale)
How it was run: as §1

[10] = system: barnyardgrass (Echinochloa crus-galli); experiment: Test A postemergence; details: Echinochloa crus-galli, post-emergence, 240 h
How it was run: as §1

[11] = system: ducksalad (Heteranthera limosa); experiment: Test B flooded paddy test; details: Heteranthera limosa, 250 g ai/ha, Flood; 0 to 100 scale where 0 is no effect and 100 is complete control; read-out: Ducksalad plant response rating
How it was run: (§2)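 Response scored visually against untreated controls, 0 = no effect and 100 = complete control, 13–15 d after treatment in the greenhouse. Compounds added to paddy water held 3 cm above soil surface. Treatment given at 2-leaf stage.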

[12] = system: rice (Oryra sativa); experiment: Test B flooded paddy test; details: Oryza sativa, 250 g ai/ha, Flood; 0 to 100 scale where 0 is no effect and 100 is complete control; read-out: Rice plant response rating
How it was run: as §2

[13] = system: barnyardgrass (Echinochloa crus-galli); experiment: Test B flooded paddy test; details: Echinochloa crus-galli, 250 g ai/ha, Flood; 0 to 100 scale where 0 is no effect and 100 is complete control; read-out: Barnyardgrass plant response rating
How it was run: as §2

[14] = system: sedge, umbrella (small-flower umbrella sedge, Cyperus difformis); experiment: Test B flooded paddy test; details: Cyperus difformis, 250 g ai/ha, Flood; 0 to 100 scale where 0 is no effect and 100 is complete control; read-out: Sedge, Umbrella plant response rating
How it was run: as §2

[15] = system: giant foxtail (Setaria faberii); experiment: Test A preemergence; details: Setaria faberi, pre-emergence, 240 h, 0 to 100 scale where 0 is no effect and 100 is complete control, read-out: Foxtail, Giant plant response rating
How it was run: as §1

[16] = system: Kochia (Kochia scoparia); experiment: Test A preemergence; details: Bassia scoparia, pre-emergence, 240 h, 0 to 100 scale where 0 is no effect and 100 is complete control, read-out: Kochia plant response rating
How it was run: as §1

[17] = system: ragweed (common ragweed, Ambrosia elatior); experiment: Test A preemergence; details: Ambrosia artemisiifolia, pre-emergence, 240 h, 0 to 100 scale where 0 is no effect and 100 is complete control, read-out: Ragweed plant response rating
How it was run: as §1

[18] = system: ryegrass, Italian (Italian ryegrass, Lolium multiflorum); experiment: Test A preemergence; details: Lolium multiflorum, pre-emergence, 240 h, 0 to 100 scale where 0 is no effect and 100 is complete control, read-out: Ryegrass, Italian plant response rating
How it was run: as §1

[19] = system: pigweed (Amaranthus retroflexus); experiment: Test A preemergence; details: Amaranthus retroflexus, pre-emergence, 240 h, 0 to 100 scale where 0 is no effect and 100 is complete control, read-out: Pigweed plant response rating
[20] = system: barnyardgrass (Echinochloa crus-galli); experiment: Test A preemergence; details: Echinochloa crus-galli, pre-emergence, 240 h, 0 to 100 scale where 0 is no effect and 100 is complete control, read-out: Barnyardgrass plant response rating
How it was run: as §1

[21] = 125 g ai/ha, preemergence, approx. 10 d

## CN1C[C@H](c2cc(F)cc(C(F)(F)F)c2)[C@@H](C(=O)Nc2cccnc2F)C1=O [Compound 1176]
[1]; 125 g ai/ha, postemergence, visual injury vs untreated controls after approx. 10 d, 0 = no effect, 100 = complete control, read-out: Corn plant response rating (0 to 100 scale)
  plant injury at 125 g/ha: 90%
[1]; Postemergence, 31 g ai/ha, visual injury after approx. 10 d, 0 to 100 scale, 0 no effect, 100 complete control
  Corn plant response rating (crop injury, 0 = no effect, 100 = complete kill) at 31 g/ha: 50%
[2]; 125 g ai/ha, postemergence, visual injury vs untreated controls after approx. 10 d, 0 = no effect, 100 = complete control, read-out: Foxtail, Giant plant response rating (0 to 100 scale)
  pest or weed control at 125 g/ha: 80%
[2]; Postemergence, 31 g ai/ha, visual injury after approx. 10 d, 0 to 100 scale, 0 no effect, 100 complete control, read-out: Plant response rating, Foxtail, Giant
  pest or weed control at 31 g/ha: 80%
[3]; 125 g ai/ha, postemergence, visual injury vs untreated controls after approx. 10 d, 0 = no effect, 100 = complete control, read-out: Kochia plant response rating (0 to 100 scale)
  pest or weed control at 125 g/ha: 40%
[3]; Postemergence, 31 g ai/ha, visual injury after approx. 10 d, 0 to 100 scale, 0 no effect, 100 complete control, read-out: Plant response rating, Kochia
  pest or weed control at 31 g/ha: 0%
[4]
  pest or weed control at 125 g/ha: 30%
[5]
  pest or weed control at 125 g/ha: 30%
[6]; 125 g ai/ha, postemergence, visual injury vs untreated controls after approx. 10 d, 0 = no effect, 100 = complete control, read-out: Blackgrass plant response rating (0 to 100 scale)
  pest or weed control at 125 g/ha: 70%
[6]; Postemergence, 31 g ai/ha, visual injury after approx. 10 d, 0 to 100 scale, 0 no effect, 100 complete control, read-out: Plant response rating, Blackgrass
  pest or weed control at 31 g/ha: 50%
[7]; 125 g ai/ha, postemergence, visual injury vs untreated controls after approx. 10 d, 0 = no effect, 100 = complete control, read-out: Galium plant response rating (0 to 100 scale)
  pest or weed control at 125 g/ha: 50%
[7]; Postemergence, 31 g ai/ha, visual injury after approx. 10 d, 0 to 100 scale, 0 no effect, 100 complete control, read-out: Plant response rating, Galium
  pest or weed control at 31 g/ha: 30%
[8]
  plant injury at 125 g/ha: 90%
[9]
  pest or weed control at 125 g/ha: 0%
[10]; 125 g ai/ha, postemergence, visual injury vs untreated controls after approx. 10 d, 0 = no effect, 100 = complete control, read-out: Barnyardgrass plant response rating (0 to 100 scale)
  pest or weed control at 125 g/ha: 90%
[10]; Postemergence, 31 g ai/ha, visual injury after approx. 10 d, 0 to 100 scale, 0 no effect, 100 complete control, read-out: Plant response rating, Barnyardgrass
  pest or weed control at 31 g/ha: 80%
[11]
  pest or weed control at 250 g/ha: 95%
[12]
  pest or weed control at 250 g/ha: 0%
[13]
  pest or weed control at 250 g/ha: 95%
[14]
  pest or weed control at 250 g/ha: 0%
[15]; 31 g ai/ha, Preemergence
  pest or weed control at 31 g/ha: 90%
[15]; [21]
  pest or weed control at 125 g/ha: 90%
[16]; 31 g ai/ha, Preemergence
  pest or weed control at 31 g/ha: 0%
[16]; [21]
  pest or weed control at 125 g/ha: 40%
[17]; 31 g ai/ha, Preemergence
  pest or weed control at 31 g/ha: 0%
[17]; [21]
  pest or weed control at 125 g/ha: 0%
[18]; 31 g ai/ha, Preemergence
  pest or weed control at 31 g/ha: 40%
[18]; [21]
  pest or weed control at 125 g/ha: 50%
[19]; 31 g ai/ha, Preemergence
  pest or weed control at 31 g/ha: 0%
[19]; [21]
  pest or weed control at 125 g/ha: 40%
[20]; 31 g ai/ha, Preemergence
  pest or weed control at 31 g/ha: 90%
[20]; [21]
  pest or weed control at 125 g/ha: 90%
